For 30 compounds, activity results are on record in patent US20230391752A1, “PYRROLIDINE-3-CARBOXAMIDE DERIVATIVES AND RELATED USES” (Chulalongkorn University, priority 2020, published 2023).

This assay deals with HBV. Put plainly: In vitro anti-HBV activity in HepG2.2.15 cell line (intracellular HBV DNA by qPCR at 1 μM). It counts as cell-based. The following applies: Hepatitis B virus, 144 h; HepG2.2.15 cells, 1 μM compound, 6 days, intracellular HBV DNA as percentage compared to vehicle control (0.5% DMSO). The method, then: The stable transfected HBV cell line, called HepG2.2.15 cells was a valuable model with high reproducibility and commonly used for drug screening. To identify the anti-HBV activity, HepG2.2.15 cells were seeded at 5×10^5 cells/well with high glucose Dulbecco's modified Eagle medium (DMEM) containing 10% heat inactivated fetal bovine serum (FBS), 300 mg/L G418, non-essential amino acids (NEAA) 100 units/ml Antibiotic-Antimycotic, and allowed to stand for an overnight in an incubator set at 37° C. and 5% C02. HepG2.2.15 cells in each well were treated with the medium containing a compound (1 μM with 0.5% dimethyl sulfoxide (DMSO final concentration) for three days in the incubator. After that the medium was removed and fresh medium containing the compound was added to the cells for another 3 days. After 6 days of treatment, intracellular HBV DNA was extracted and determined by using quantitative real-time PCR (qPCR) technique with specific primers. Intrahepatic HBV DNA viral load was reported as percentage compared to vehicle control (0.5% DMSO) as shown in Table A.
“B” means % ranging between 80 and 90; “C” means % ranging between 70 and 80; “D” means % ranging between 60 and 70; “E” means % ranging between 45 and 60, “F” means %<45.
In general terms: Quantitative PCR measures a nucleic acid by following its amplification.

`Cc1ccnnc1-c1ccc(C(=O)N2CC[C@H](C(=O)Nc3cc(F)c(F)c(F)c3)C2)[nH]1` [Example 98, (S)-1-(5-(4-methylpyridazin-3-yl)-1H-pyrrole-2-carbonyl)-N-(3,4,5-trifluorophenyl) pyrrolidine-3-carboxamide]: the activity at 1 µM fell in the range of 70 to 80%.

On to `Cc1cc(C(=O)N2CC[C@H](C(=O)Nc3cc(F)c(F)c(F)c3)C2)[nH]c1C` [Example 15, (S)-1-(4,5-dimethyl-1H-pyrrole-2-carbonyl)-N-(3,4,5-trifluorophenyl)pyrrolidine-3-carboxamide], for which the activity at 1 µM was in the range of 60 to 70%.

`N#Cc1cc(NC(=O)[C@H]2CCN(C(=O)c3[nH]c4ccccc4c3Cl)C2)ccc1F` [Example 43, (S)-1-(3-chloro-1H-indole-2-carbonyl)-N-(3-cyano-4-fluorophenyl)pyrrolidine-3-carboxamide]: the activity at 1 µM lay in the range of 45 to 60%.

`O=C(Nc1cc(F)c(F)c(F)c1)[C@H]1CCN(C(=O)c2cccc3cc[nH]c23)C1` [Example 6, (S)-1-(1H-indole-7-carbonyl)-N-(3,4,5-trifluorophenyl)pyrrolidine-3-carboxamide] displayed an activity at 1 µM of more than 90%.

As for `Cc1ccc(C(=O)N2CC[C@H](C(=O)Nc3cc(F)c(F)c(Br)c3)[C@@H]2C)[nH]1` [Example 58, (2S,3S)—N-(3-bromo-4,5-difluorophenyl)-2-methyl-1-(5-methyl-1H-pyrrole-2-carbonyl)pyrroline-3-carboxamide], the activity at 1 µM lay within 70 to 80%.

In turn, `O=C(Nc1cc(F)c(F)c(F)c1)[C@H]1CCN(C(=O)c2ccc3c(CNCCO)c[nH]c3c2)C1` [Example 37, (S)-1-(3-(((2-hydroxyethyl)amino)methyl)-1H-indole-6-carbonyl)-N-(3,4,5-trifluorophenyl) pyrrolidine-3-carboxamide] yielded an activity at 1 µM of more than 90%.

As for `Cc1ncc(-c2ccc(C(=O)N3CC[C@H](C(=O)Nc4cc(F)c(F)c(F)c4)C3)[nH]2)cn1` [Example 86, (S)-1-(5-(2-methylpyrimidin-5-yl)-1H-pyrrole-2-carbonyl)-N-(3,4,5-trifluorophenyl)pyrrolidine-3-carboxamide], the activity at 1 µM was less than 45%.

`C[C@H]1[C@@H](C(=O)Nc2cc(F)c(F)c(F)c2)CCN1C(=O)c1ccc(-c2cnccn2)[nH]1` [Example 84, (2S,3S)-2-methyl-1-(5-(pyrazin-2-yl)-1H-pyrrole-2-carbonyl)-N-(3,4,5-trifluorophenyl) pyrrolidine-3-carboxamide] gave an activity at 1 µM of more than 90%.

Regarding `Cc1cc(NC(=O)[C@H]2CCN(C(=O)c3ccc(-c4c(C)nn(CC(=O)O)c4C)[nH]3)[C@H]2C)ccc1F` [Example 147, 2-(4-(5-((2S,3S)-3-((4-fluoro-3-methylphenyl)carbamoyl)-2-methylpyrrolidine-1-carbonyl)-1H-pyrrol-2-yl)-3,5-dimethyl-1H-pyrazol-1-yl)acetic acid], the activity at 1 µM was in the range of 45 to 60%.

Compound `CC(=O)c1c[nH]c(C(=O)N2CC[C@H](C(=O)Nc3cc(F)c(F)c(F)c3)C2)c1` [Example 38, (S)-1-(4-acetyl-1H-pyrrole-2-carbonyl)-N-(3,4,5-trifluorophenyl)pyrrolidine-3-carboxamide] showed an activity at 1 µM of more than 90%.

Consider `N#Cc1cc(NC(=O)[C@H]2CCN(C(=O)c3ccc(-c4ccc(F)cc4)[nH]3)C2)ccc1F` [Example 76, (S)—N-(3-cyano-4-fluorophenyl)-1-(5-(4-fluorophenyl)-1H-pyrrole-2-carbonyl)pyrrolidine-3-carboxamide], for which the activity at 1 µM was 45 to 60%.

`Cc1ncsc1-c1ccc(C(=O)N2CC[C@H](C(=O)Nc3cc(F)c(F)c(F)c3)C2)[nH]1` [Example 108, (S)-1-(5-(4-methylthiazol-5-yl)-1H-pyrrole-2-carbonyl)-N-(3,4,5-trifluorophenyl) pyrrolidine-3-carboxamide] showed an activity at 1 µM of 45 to 60%.

Consider `Cc1ncccc1C(=O)c1ccc(C(=O)N2CC[C@H](C(=O)Nc3cc(F)c(F)c(F)c3)C2)[nH]1` [Example 144, (S)-1-(5-(2-methylnicotinoyl)-1H-pyrrole-2-carbonyl)-N-(3,4,5-trifluorophenyl)pyrrolidine-3-carboxamide], for which the activity at 1 µM is more than 90%.

In turn, `Cc1cc(NC(=O)[C@H]2CCN(C(=O)c3cc4cccnc4[nH]3)C2)ccc1F` [Example 24, (S)—N-(4-fluoro-3-methylphenyl)-1-(1H-pyrrolo[2,3-b]pyridine-2-carbonyl)pyrrolidine-3-carboxamide] returned an activity at 1 µM of 60 to 70%.

Consider `O=C(Nc1cc(F)c(F)c(F)c1)[C@H]1CCN(C(=O)c2cc3nccnc3[nH]2)C1` [Example 23, (S)-1-(5H-pyrrolo[2,3-b]pyrazine-6-carbonyl)-N-(3,4,5-trifluorophenyl)pyrrolidine-3-carboxamide], for which the activity at 1 µM fell in the range of 70 to 80%.

`C[C@H]1[C@@H](C(=O)Nc2cc(F)c(F)c(F)c2)CCN1C(=O)c1cc2cccnc2[nH]1` [Example 17, (2S,3S)-2-methyl-1-(1H-pyrrolo[2,3-b]pyridine-2-carbonyl)-N-(3,4,5-trifluorophenyl) pyrrolidine-3-carboxamide] had an activity at 1 µM of 60 to 70%.

On to `N#Cc1ccc(C(=O)N2CC[C@H](C(=O)Nc3cc(F)c(F)c(F)c3)C2)[nH]1` [Example 50, (S)-1-(5-cyano-1H-pyrrole-2-carbonyl)-N-(3,4,5-trifluorophenyl)pyrrolidine-3-carboxamide], for which the activity at 1 µM lay within 70 to 80%.

In turn, `O=C(Nc1cc(F)c(F)c(F)c1)[C@H]1CCN(C(=O)c2ccc(-c3ccncc3)[nH]2)C1` [Example 77, (S)-1-(5-(pyridin-4-yl)-1H-pyrrole-2-carbonyl)-N-(3,4,5-trifluorophenyl)pyrrolidine-3-carboxamide] gave an activity at 1 µM of less than 45%.

The compound `O=C(Nc1cc(F)c(F)c(F)c1)[C@H]1CCN(C(=O)c2nccs2)C1` [Example 28, (S)-1-(thiazole-2-carbonyl)-N-(3,4,5-trifluorophenyl)pyrrolidine-3-carboxamide] registered an activity at 1 µM of more than 90%.

In turn, `O=C(Nc1cc(F)c(F)c(F)c1)[C@H]1CCN(C(=O)c2cc3cc(F)c(F)cc3[nH]2)C1` [Example 49, (S)-1-(5,6-difluoro-1H-indole-2-carbonyl)-N-(3,4,5-trifluorophenyl)pyrrolidine-3-carboxamide] came in with an activity at 1 µM of more than 90%.

The compound `Cc1ncn(C)c1-c1ccc(C(=O)N2CC[C@H](C(=O)Nc3cc(F)c(F)c(F)c3)C2)[nH]1` [Example 107, (S)-1-(5-(1,4-dimethyl-1H-imidazol-5-yl)-1H-pyrrole-2-carbonyl)-N-(3,4,5-trifluorophenyl) pyrrolidine-3-carboxamide] yielded an activity at 1 µM of 70 to 80%.

For the compound `Cc1ncnc(C)c1-c1ccc(C(=O)N2CC[C@H](C(=O)Nc3ccc(F)c(C4CC4)c3)[C@@H]2C)[nH]1` [Example 170, (2S,3S)—N-(3-cyclopropyl-4-fluorophenyl)-1-(5-(4,6-dimethylpyrimidin-5-yl)-1H-pyrrole-2-carbonyl)-2-methylpyrrolidine-3-carboxamide], the activity at 1 µM was less than 45%.

In the case of `COc1cc2cc(C(=O)N3CC[C@H](C(=O)Nc4cc(F)c(F)c(F)c4)C3)[nH]c2cn1` [Example 12, (S)-1-(5-methoxy-1H-pyrrolo[2,3-c]pyridine-2-carbonyl)-N-(3,4,5-trifluorophenyl)pyrrolidine-3-carboxamide], the activity at 1 µM lay in the range of 80 to 90%.

Regarding `N#Cc1ncccc1-c1ccc(C(=O)N2CC[C@H](C(=O)Nc3ccc(F)c(Cl)c3)C2)[nH]1` [Example 148, (S)—N-(3-chloro-4-fluorophenyl)-1-(5-(2-cyanopyridin-3-yl)-1H-pyrrole-2-carbonyl)pyrrolidine-3-carboxamide], the activity at 1 µM is 45 to 60%.

Compound `Cc1ccc(C(=O)N2CC[C@H](C(=O)Nc3ccc(F)c(Cl)c3)C2)[nH]1` [Example 33, (S)—N-(3-chloro-4-fluorophenyl)-1-(5-methyl-1H-pyrrole-2-carbonyl)pyrrolidine-3-carboxamide] displayed an activity at 1 µM of 80 to 90%.

In turn, `O=C(Nc1cc(F)c(F)c(F)c1)[C@H]1CCN(C(=O)c2ccc(-c3ccncc3F)[nH]2)C1` [Example 95, (S)-1-(5-(3-fluoropyridin-4-yl)-1H-pyrrole-2-carbonyl)-N-(3,4,5-trifluorophenyl) pyrrolidine-3-carboxamide] returned an activity at 1 µM of 45 to 60%.

For `O=C(Nc1cc(F)c(F)c(F)c1)[C@H]1CCN(C(=O)c2ccc(-c3cnccn3)[nH]2)C1` [Example 131, (S)-1-(5-(pyrazin-2-yl)-1H-pyrrole-2-carbonyl)-N-(3,4,5-trifluorophenyl)pyrrolidine-3-carboxamide], the activity at 1 µM is 45 to 60%.

For the compound `COc1ncnc(C)c1-c1ccc(C(=O)N2CC[C@H](C(=O)Nc3ccc(F)c(Cl)c3)C2)[nH]1` [Example 106, (S)—N-(3-chloro-4-fluorophenyl)-1-(5-(4-methoxy-6-methylpyrimidin-5-yl)-1H-pyrrole-2-carbonyl)pyrrolidine-3-carboxamide], the activity at 1 µM is less than 45%.

As to `Cc1ccc(C(=O)N2CC[C@H](C(=O)Nc3cc(F)c(F)c(F)c3)C2)[nH]1` [Example 1, (S)-1-(5-methyl-1H-pyrrole-2-carbonyl)-N-(3,4,5-trifluorophenyl)pyrrolidine-3-carboxamide], the activity at 1 µM was 45 to 60%.

`O=C(c1cccnc1)c1ccc(C(=O)N2CC[C@H](C(=O)Nc3cc(F)c(F)c(F)c3)C2)[nH]1` [Example 142]: the activity at 1 µM is more than 90%.
